The nature of data set [1]: Acute toxicity, male ICR strain mouse. The data set is classed as in vivo. The settings on record: 1000 mg/kg orally, seven days after administration. As to the method:
(1) Acute toxicity: Nine compounds (Example Nos. 1, 2, 5, 6, 12, 19, 28, 31 and 45) were tested by using male ICR strain mouse weighing 23.0±0.7 g.

The test system of data set [2] is ACAT of macrophage. As to the kind of experiment: In-vivo test using mouse peritoneal macrophages (ACAT inhibition). The settings on record: male mice, compound in diet for 16 days. As to the method:
(3) In-vivo Test Using Mouse Peritoneal Macrophages
Male mice were fed a standard powder diet containing the test compounds for 16 days. After 14 and 15 days on this diet, aggregated-LDL (containing 4 mg cholesterol) prepared from LDL receptor deficient KHC rabbit and [^14 C] oleic acid together with the said aggregated-LDL (containing 0.5 mg cholesterol) were injected into the peritoneal cavity of these animals, respectively. After 16 days on this treatment, peritoneal macrophages were harvested by peritoneal lavage with PBS solution and CHCl3 -MeOH (2:1) were added to the cell suspension in order to extract lipids. Formed [^14 C] cholesterol oleate was separated by thin-layer chromatography and the radioactivity was counted.
ACAT inhibitory activities of the test compounds were shown as inhibiting percentage referred to control group.

Data set [3] concerns ACAT of HepG2 microsome. The experiment in a line: In-vitro test using Hep G2 microsome (ACAT inhibition). Type of data set: biochemical, human. As to the method: (1) In-vitro Test Using Hep G2 Microsome
ACAT enzyme fraction was prepared from microsome of human derived hepatoma Hep G2 cell according to Sandra's method [Journal of Lipid Research, 27, 875 (1986)].
Microsome was suspended at a concentration of 200 μg protein/20 μl in 0.1M phosphate buffer solution (pH7.4) and the suspension was preincubated at 37° C. for 5 minutes after addition of 10 μl of each test compound dissolved in 0.1M phosphate buffer solution containing bovine serum albmin (BSA). Then, the reaction was initiated by the addition of 5 nmoles of labeled [^14 C]-oleoyl-CoA dissolved in 20 μl of the said phosphate buffer solution containing BSA and the reaction was stopped by the addition of 20 μl of 2N HCl after 10 minutes. [^14 C] cholesterol-oleate formed was separated by thin-layer chromatography and the radioactivity was counted with liquid scintillation counter.
(§1) ACAT inhibitory activities of the test compounds were shown as IC50 values.

Data set [4] concerns ACAT of macrophages. The experiment in a line: In vivo test using peritoneal macrophages in C57BL/6J mice (ACAT inhibition). Also on record: species or system mouse. The settings on record: female C57BL/6J mice, 30 mg/kg/day per os for 4 days. The protocol:
(6) In Vivo Test Using Peritoneal Macrophages in C57BL/6J Mice
A standard pellet diet fed female C57BL/6J mice were administered at 10 a.m. per os 30 mg/kg/day of oral suspension (1% CMC-Na 0.2% Tween 80) for 4 days. Thioglycollate and [^14 C] cholesterol were injected […], mice were sacrificed for the collection of peritoneal macrophages. Lipid was extracted, formed [^14 C] cholesterol-ester was separated by thin-layer chromatography and radioactivity was counted as described above in method (3).
In vivo ACAT inhibitory activities on macrophages were expressed as percentage of inhibition compared to control group.

Data set [5] concerns the target T1, ACAT of THP-1 cells (Homo sapiens, UniProt P35610).
T1 construct: differentiated into macrophage-like cells by phorbol ester; endogenous in cells; host or cells: THP-1 (human leukemia), intact cells differentiated by phorbol ester
T1 sequence (P35610 1-550): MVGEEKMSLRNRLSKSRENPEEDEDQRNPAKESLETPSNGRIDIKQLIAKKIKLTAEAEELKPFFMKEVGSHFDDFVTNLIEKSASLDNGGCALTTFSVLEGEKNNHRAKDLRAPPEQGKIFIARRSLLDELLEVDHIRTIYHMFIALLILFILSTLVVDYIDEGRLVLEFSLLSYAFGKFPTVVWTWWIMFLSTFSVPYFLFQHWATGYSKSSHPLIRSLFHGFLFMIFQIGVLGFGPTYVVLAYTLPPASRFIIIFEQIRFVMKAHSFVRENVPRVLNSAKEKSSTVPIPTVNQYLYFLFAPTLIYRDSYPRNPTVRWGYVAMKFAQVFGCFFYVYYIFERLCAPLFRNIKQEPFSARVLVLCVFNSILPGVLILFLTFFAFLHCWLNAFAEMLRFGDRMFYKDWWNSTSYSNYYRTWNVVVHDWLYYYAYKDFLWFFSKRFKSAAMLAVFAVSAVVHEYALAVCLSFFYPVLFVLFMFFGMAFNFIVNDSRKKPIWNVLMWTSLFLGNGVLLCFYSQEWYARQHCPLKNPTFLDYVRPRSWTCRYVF
As to the kind of experiment: In-vitro test using THP-1 intact cell (ACAT inhibition). Type of data set: cell-based. The settings on record: read-out: IC50 THP1 (intact cell). As to the method:
(2) In-vitro Test Using THP-1 Intact Cell
About 2 million cells of human leukemia cell line, THP-1 were seeded in a well with 2 ml of medium and differentiated into macrophage-like cells by phorbol ester. Then, the cells were washed with phosphate-buffered saline (PBS) solution and the medium was replaced by fresh medium supplemented with 10% of lipoprotein-deficient serum. After the addition of each test compound dissolved in dimethyl sulfoxide and 100 μg protein-containing human low density lipoprotein (LDL), the reaction was initiated by the addition of 10 nmoles of labeled [^14 C]oleic acid and 10 nmoles of oleic acid complexed with BSA in PBS solution. After 22 hours, the reaction was stopped by removal the medium and CHCl3 -MeOH (2:1) were added to the cell suspension in order to extract lipids.
Intracellular [^14 C] cholesterol-oleate formed was separated by thin-layer chromatography and the radioactivity was counted with lipid scintillation counter.
as §1

Data set [6] addresses T2, THP-1 microsomal ACAT (Homo sapiens, UniProt P35610).
T2 construct: ACAT enzyme fraction was prepared from microsome of human leukemia THP-1 cell; endogenous in cells; host or cells: THP-1 (human leukemia), microsomes
T2 sequence (P35610 1-550): T1 sequence (P35610 1-550)
As to the kind of experiment: Bioavailability assessment of ACAT inhibitors by their ex vivo activity (serum of dosed mice on THP-1 microsomal ACAT). The settings on record: female mice, 30 mg/kg per os, 1% CMC-Na 0.2% Tween 80; maximum inhibition by serum. The data set is classed as in vivo. As to the method: (5) Bioavailability Assessment of ACAT Inhibitors by Their <<ex vivo>> Activity
[…] Blood samples were collected 0.5, 1, 1.5, 2, 6 hour postdose. Serum were harvested after gentle centrifugation and stored at -20.
The following day, 10 μl serum were preincubated at 37 for 5 minutes with 20 μl of THP-1 microsomal ACAT and then incubated 10 minutes with 20 μl of radiolabeled oleoyl-CoA as described above in method (4). The serum is used instead of the drug solution.
ACAT inhibitory activities of the test compounds were shown as maximum inhibition percentages (Imax).

Data set [7] addresses T2, THP-1 microsomal ACAT. As to the kind of experiment: In vitro test using THP-1 microsome (ACAT inhibition). Type of data set: biochemical. The settings on record: THP-1 microsome; read-out: IC50 THP1 microsome.
Protocol: (4) In Vitro Test Using THP-1 Microsome
Then, the reaction was initiated by the addition of 5 nmoles of labeled [^14 C] oleoyl-CoA dissolved in 20 μl of said phosphate buffer solution containing BSA and the reaction was stopped by the addition of 20 μl of 2N HCl after 10 minutes. [^14 C] cholesterol-oleate formed was separated by thin-layer chromatography and the radioactivity was counted with liquid scintillation counter.

The values below come from patent publication US5872115A, “2-ureido-benzamide derivatives” (Grelan Pharmaceutical Co. Ltd., priority 1995, dated 1999).

`CCCCCCCNC(=O)Nc1ccc(N(C)C)cc1C(=O)NCC1CCN(C(c2ccccc2)c2ccccc2)CC1` [Example 1, 2-(N'-n-Heptylureido)-5-dimethylamino-N-[(1-diphenylmethylpiperidin-4-yl)methyl]-benzamide]: in data set [1], the “macroscopic changes on any organs at autopsy” value was “no macroscopic changes were observed”. For the same compound, the “Inhibition rate (macrophages)” value in data set [2] is reported as 65%; in data set [4] (Experiment 1), 81.0%. Also, the IC50 in data set [3] amounted to 600 nM; in data set [5], 70 nM.
For the compound `CCCCCCCNC(=O)Nc1ccccc1C(=O)NCC1CCN(C(c2ccccc2)c2ccccc2)CC1` [Example 5, 2-(N'-n-Heptylureido)-N-[(1-diphenylmethylpiperidin-4-yl)methyl]benzamide], the “macroscopic changes on any organs at autopsy” value in data set [1] is reported as “no macroscopic changes were observed”. Besides, the “Inhibition rate (macrophages)” value in data set [2] came to 64%. The IC50 in data set [3] is 1600 nM; in data set [5], 70 nM.
As for `CCCNC(=O)Nc1ccc(N2CCOCC2)cc1C(=O)NCC1CCN(C(c2ccccc2)c2ccccc2)CC1` [Example 71, 5-(Morpholin-4-yl)-2-(N'-n-propylureido)-N-[(1-diphenylmethylpiperidin-4-yl)methyl]-benzamide], the “Inhibition rate (macrophages)” value in data set [4] (Experiment 2) amounted to 73.5%. Moreover, in data set [6], the “Imax Ex vivo” value was found to be 81.1%. In addition, the IC50 in data set [7] was found to be 90 nM.

As a reminder, the IC50 is the concentration that inhibits the measured activity by half.
